{"source": "patent US9695155B2", "about": "“Herbicidal substituted pyrimidinyloxy benzene compounds” (E. I. DU PONT DE NEMOURS AND COMPANY, priority 2013, dated 2017)", "key": {"corn [1]": {"test_system": "corn", "experiment": "Test C preemergence", "assay_type": "in vivo, Zea mays", "conditions": "for Corn plant response rating: preemergence", "how_it_was_run": "(§1)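 Visual ratings on a 0–100 scale (100 = complete control) were made versus untreated controls after 13–15 greenhouse days. Chemicals in a surfactant-containing non-phytotoxic solvent were applied either preemergence to seeds in loam–sand soil or postemergence to 1- to 4-leaf plants 2–18 cm tall.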"}, "velvetleaf [2]": {"test_system": "velvetleaf", "experiment": "Test A preemergence", "assay_type": "in vivo, Abutilon theophrasti", "conditions": "125 g ai/ha, 0 to 100 scale where 0 is no effect and 100 is complete control", "how_it_was_run": "(§2)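 Compounds in non-phytotoxic solvent with surfactant applied as soil spray preemergence, or postemergence to plants 2-10 cm at one- to two-leaf stage, in loam/sand. After approximately 10 days in greenhouse, injury rated visually versus untreated controls, 0 (no effect) to 100 (complete control).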"}, "velvetleaf [3]": {"test_system": "velvetleaf", "experiment": "Test C postemergence", "assay_type": "in vivo, Abutilon theophrasti", "conditions": "for Plant response rating, Velvetleaf: Postemergence, scale 0 to 100 (0 no effect, 100 complete control)", "how_it_was_run": "as §1"}, "lambsquarters": {"test_system": "lambsquarters", "experiment": "Test C postemergence", "assay_type": "in vivo, Chenopodium album", "conditions": "for Plant response rating, Lambsquarters: Postemergence, scale 0 to 100 (0 no effect, 100 complete control)", "how_it_was_run": "as §1"}, "wheat, winter": {"test_system": "wheat, winter", "experiment": "Test C postemergence", "assay_type": "in vivo, Triticum aestivum", "conditions": "for Plant response rating, Wheat: Postemergence, scale 0 to 100 (0 no effect, 100 complete control)", "how_it_was_run": "as §1"}, "sedge, umbrella": {"test_system": "sedge, umbrella", "experiment": "Test B flooded paddy test", "assay_type": "in vivo, Cyperus difformis", "conditions": "Flood, 250 g ai/ha; 0 to 100 scale where 0 is no effect and 100 is complete control", "how_it_was_run": "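Compound added straight to paddy water, with pots kept flooded 3 cm above soil, on plants grown to the 2-leaf stage. Visual scoring 0-100 (100 = complete control) against untreated controls after 13 to 15 greenhouse days.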"}, "blackgrass": {"test_system": "blackgrass", "experiment": "Test C preemergence", "assay_type": "in vivo, Alopecurus myosuroides", "conditions": "for Blackgrass plant response rating: preemergence", "how_it_was_run": "as §1"}, "pigweed": {"test_system": "pigweed", "experiment": "Test C preemergence", "assay_type": "in vivo, Amaranthus retroflexus", "conditions": "for Pigweed plant response rating: preemergence", "how_it_was_run": "as §1"}, "galium": {"test_system": "galium", "experiment": "Test C postemergence", "assay_type": "in vivo, Galium aparine", "conditions": "for Plant response rating, Galium: Postemergence", "how_it_was_run": "as §1"}, "oilseed rape": {"test_system": "oilseed rape", "experiment": "Test C postemergence", "assay_type": "in vivo, Brassica napus", "conditions": "for Plant response rating, Oilseed Rape: Postemergence, scale 0 to 100 (0 no effect, 100 complete control)", "how_it_was_run": "as §1"}, "barnyardgrass": {"test_system": "barnyardgrass", "experiment": "Test C postemergence", "assay_type": "in vivo, Echinochloa crus-galli", "conditions": "for Plant response rating, Barnyardgrass: Postemergence", "how_it_was_run": "as §1"}, "velvetleaf [4]": {"test_system": "velvetleaf", "experiment": "Test C preemergence", "assay_type": "in vivo, Abutilon theophrasti", "conditions": "for Velvetleaf plant response rating: preemergence", "how_it_was_run": "as §1"}, "Italian ryegrass": {"test_system": "Italian ryegrass", "experiment": "Test C postemergence", "assay_type": "in vivo, Lolium multiflorum", "conditions": "for Plant response rating, Ryegrass, Italian: Postemergence, scale 0 to 100 (0 no effect, 100 complete control)", "how_it_was_run": "as §1"}, "corn [5]": {"test_system": "corn", "experiment": "Test A preemergence", "assay_type": "in vivo, Zea mays", "how_it_was_run": "as §2"}, "wheat": {"test_system": "wheat", "experiment": "Test A postemergence", "assay_type": "in vivo, Triticum aestivum", "conditions": "0 to 100 scale where 0 is no effect and 100 is complete control", "how_it_was_run": "as §2"}, "[6]": {"conditions": "16 g ai/ha, scale 0 to 100 (0 no effect, 100 complete control)"}, "[7]": {"conditions": "62 g ai/ha, scale 0 (no effect) to 100 (complete control)"}, "[8]": {"conditions": "125 g ai/ha, scale 0 (no effect) to 100 (complete control)"}, "[9]": {"conditions": "Preemergence, 31 g ai/ha, scale 0 to 100, 0 no effect, 100 complete control"}, "[10]": {"conditions": "16 g ai/ha, postemergence, visual rating, scale 0 to 100 (0 no effect, 100 complete control), 13 to 15 days"}, "[11]": {"conditions": "31 g ai/ha, scale 0 to 100 (0 no effect, 100 complete control), 13 to 15 days"}, "[12]": {"conditions": "62 g ai/ha, scale 0 to 100 (0 no effect, 100 complete control)"}}, "data": [{"smiles": "CCOc1cnn(-c2c(C#N)cccc2Oc2ncc(Cl)cn2)c1", "note": "[Compound 92]", "values": [{"measurement": "Corn plant response rating", "setting": "corn [1]; [6]", "result": 0}, {"measurement": "Corn plant response rating", "setting": "corn [1]; [7]", "result": 5}, {"measurement": "Corn plant response rating", "setting": "corn [1]; [8]", "result": 65}, {"measurement": "Plant response rating, Corn", "setting": "corn [1]; [9]", "result": 0}, {"measurement": "Plant response rating, Velvetleaf", "setting": "velvetleaf [2]", "result": 100}, {"measurement": "Plant response rating (0 to 100), Velvetleaf", "setting": "velvetleaf [3]; 125 g ai/ha, postemergence", "result": 60}, {"measurement": "Plant response rating, Velvetleaf", "setting": "velvetleaf [3]; 31 g ai/ha, 13 to 15 days", "result": 45}, {"measurement": "Plant response rating, Velvetleaf", "setting": "velvetleaf [3]; 62 g ai/ha", "result": 50}, {"measurement": "Plant response rating (0 to 100), Lambsquarters", "setting": "lambsquarters; 125 g ai/ha, postemergence", "result": 75}, {"measurement": "Plant response rating, Lambsquarters", "setting": "lambsquarters; 31 g ai/ha, 13 to 15 days", "result": 35}, {"measurement": "Plant response rating, Lambsquarters", "setting": "lambsquarters; 62 g ai/ha", "result": 40}, {"measurement": "Plant response rating (0 to 100), Wheat", "setting": "wheat, winter; 125 g ai/ha, postemergence", "result": 5}, {"measurement": "Plant response rating, Wheat", "setting": "wheat, winter; 31 g ai/ha, 13 to 15 days", "result": 0}, {"measurement": "Plant response rating, Wheat", "setting": "wheat, winter; 62 g ai/ha", "result": 0}, {"measurement": "Plant response rating, Sedge, Umbrella", "setting": "sedge, umbrella", "result": 90}, {"measurement": "Blackgrass plant response rating", "setting": "blackgrass; [6]", "result": 0}, {"measurement": "Blackgrass plant response rating", "setting": "blackgrass; [7]", "result": 70}, {"measurement": "Blackgrass plant response rating", "setting": "blackgrass; [8]", "result": 90}, {"measurement": "Plant response rating, Blackgrass", "setting": "blackgrass; [9]", "result": 5}, {"measurement": "Pigweed plant response rating", "setting": "pigweed; [6]", "result": 90}, {"measurement": "Pigweed plant response rating", "setting": "pigweed; [7]", "result": 100}, {"measurement": "Pigweed plant response rating", "setting": "pigweed; [8]", "result": 100}, {"measurement": "Plant response rating, Pigweed", "setting": "pigweed; [9]", "result": 85}, {"measurement": "Galium plant response rating", "setting": "galium; [10]", "result": 70}, {"measurement": "Plant response rating (0 to 100), Galium", "setting": "galium; 125 g ai/ha, postemergence", "result": 80}, {"measurement": "Plant response rating, Galium", "setting": "galium; [11]", "result": 80}, {"measurement": "Plant response rating, Galium", "setting": "galium; [12]", "result": 65}, {"measurement": "Plant response rating (0 to 100), Oilseed Rape", "setting": "oilseed rape; 125 g ai/ha, postemergence", "result": 70}, {"measurement": "Plant response rating, Oilseed Rape", "setting": "oilseed rape; 31 g ai/ha, 13 to 15 days", "result": 45}, {"measurement": "Plant response rating, Oilseed Rape", "setting": "oilseed rape; 62 g ai/ha", "result": 60}, {"measurement": "Barnyardgrass plant response rating", "setting": "barnyardgrass; [10]", "result": 5}, {"measurement": "Plant response rating (0 to 100), Barnyardgrass", "setting": "barnyardgrass; 125 g ai/ha, postemergence", "result": 10}, {"measurement": "Plant response rating, Barnyardgrass", "setting": "barnyardgrass; [11]", "result": 5}, {"measurement": "Plant response rating, Barnyardgrass", "setting": "barnyardgrass; [12]", "result": 5}, {"measurement": "Velvetleaf plant response rating", "setting": "velvetleaf [4]; [6]", "result": 30}, {"measurement": "Velvetleaf plant response rating", "setting": "velvetleaf [4]; [7]", "result": 100}, {"measurement": "Velvetleaf plant response rating", "setting": "velvetleaf [4]; [8]", "result": 100}, {"measurement": "Plant response rating, Velvetleaf", "setting": "velvetleaf [4]; [9]", "result": 90}, {"measurement": "Plant response rating (0 to 100), Ryegrass, Italian", "setting": "Italian ryegrass; 125 g ai/ha, postemergence", "result": 35}, {"measurement": "Plant response rating, Ryegrass, Italian", "setting": "Italian ryegrass; 31 g ai/ha, 13 to 15 days", "result": 5}, {"measurement": "Plant response rating, Ryegrass, Italian", "setting": "Italian ryegrass; 62 g ai/ha", "result": 5}, {"measurement": "Plant response rating, Corn", "setting": "corn [5]; 125 g ai/ha, 0 to 100 scale where 0 is no effect and 100 is complete control", "result": 10}, {"measurement": "Corn plant response rating", "setting": "corn [5]; 500 g ai/ha, 0 to 100 scale, 0 no effect, 100 complete control, approx. 10 days", "result": 40}, {"measurement": "Plant response rating, Wheat", "setting": "wheat; 125 g ai/ha", "result": 60}, {"measurement": "Plant response rating, Wheat", "setting": "wheat; 500 g ai/ha", "result": 70}]}]}
